# Values of other authors, collected in patent US20080119444A1, “Methods and compositions for the treatment of cancer” (priority 2006, published 2008).
# How the values were obtained:
# HMG-CoA reductase = molecular target: T1, HMG-CoA reductase (Homo sapiens, UniProt P04035)
# T1 sequence (P04035 1-888): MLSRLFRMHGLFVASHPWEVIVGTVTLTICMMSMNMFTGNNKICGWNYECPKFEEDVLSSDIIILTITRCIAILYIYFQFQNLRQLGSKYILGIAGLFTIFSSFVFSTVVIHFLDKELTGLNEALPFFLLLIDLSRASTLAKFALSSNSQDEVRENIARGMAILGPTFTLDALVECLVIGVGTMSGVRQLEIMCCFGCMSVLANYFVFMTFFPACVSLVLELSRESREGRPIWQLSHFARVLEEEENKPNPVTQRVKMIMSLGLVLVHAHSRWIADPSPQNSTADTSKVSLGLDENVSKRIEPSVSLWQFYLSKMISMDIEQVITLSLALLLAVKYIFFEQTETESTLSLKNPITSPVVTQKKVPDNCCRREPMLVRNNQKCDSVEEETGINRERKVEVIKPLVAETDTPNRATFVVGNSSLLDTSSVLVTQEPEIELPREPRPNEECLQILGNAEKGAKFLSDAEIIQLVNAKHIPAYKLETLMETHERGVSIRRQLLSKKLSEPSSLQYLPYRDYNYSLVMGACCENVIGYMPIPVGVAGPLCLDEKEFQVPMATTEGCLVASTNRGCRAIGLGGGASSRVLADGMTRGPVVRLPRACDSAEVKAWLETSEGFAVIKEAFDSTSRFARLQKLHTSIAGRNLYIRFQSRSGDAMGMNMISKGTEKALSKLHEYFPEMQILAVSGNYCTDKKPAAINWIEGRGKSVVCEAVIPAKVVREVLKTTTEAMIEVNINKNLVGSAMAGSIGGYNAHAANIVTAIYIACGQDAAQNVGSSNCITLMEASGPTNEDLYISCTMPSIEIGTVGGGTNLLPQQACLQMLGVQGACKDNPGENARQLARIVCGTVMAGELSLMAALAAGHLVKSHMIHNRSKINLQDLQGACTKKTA
# early breast cancer = settings: for contralateral breast cancers (events) / disease-free survival events / distant metastases (events) / time-to-recurrence events: median follow-up 68 months
# [1] = ATAC trial
# [2] = exemestane vs tamoxifen
# breast cancer = settings: for disease-free survival: after 2 to 3 years of tamoxifen: switch to exemestane or continue tamoxifen, total 5 years, median follow-up 30.6 months
# [3] = system: endocrine-responsive breast cancer; settings: adjuvant letrozole compared with tamoxifen, postmenopausal women
# [4] = in vivo
# [5] = tamoxifen users
# [6] = sequence tamoxifen then exemestane vs continued tamoxifen
# [7] = 5 years of tamoxifen treatment, women with ER+ disease
# [8] = at 15 years, ER+ (or ER unknown) tumors, 5 years of tamoxifen
SMILES,potency relative to another statin (HMG-CoA reductase),contralateral breast cancers (events) (early breast cancer),disease-free survival events (early breast cancer) [events],distant metastases (events) (early breast cancer),time-to-recurrence events (early breast cancer),withdrawal rate for drug-related adverse events [1] [%],fracture rate compared to tamoxifen,disease-free survival (breast cancer) [%],also measured
"CC(C)c1c(C(=O)Nc2ccccc2)c(-c2ccccc2)c(-c2ccc(F)cc2)n1CC[C@@H](O)C[C@@H](O)CC(=O)O [Atorvastatin, atorvastatin]",approximately twice as potent as simvastatin,,,,,,,,
CC(C)(C#N)c1cc(Cn2cncn2)cc(C(C)(C)C#N)c1 [anastrozole],,35,575,324,402,5.1,,,reduction of contralateral breast cancers (early breast cancer; anastrozole vs tamoxifen): 42%
C=C1C[C@@H]2[C@H](CC[C@]3(C)C(=O)CC[C@@H]23)[C@@]2(C)C=CC(=O)C=C12 [exemestane],,,,,,,non-significant increase in fracture rate,91.5,diarrhea [2]: 4.3%; bone loss during treatment (compared to placebo): minor bone loss; absolute difference in disease-free survival (breast cancer; [6]): 4.7%; disease-free survival HR (breast cancer; [6]): 0.68
N#Cc1ccc(C(c2ccc(C#N)cc2)n2cncn2)cc1 [letrozole],,,,,,,significantly increase fracture rate,,"fracture rate compared to placebo (compared to placebo): non-significant increase in fracture rate; risk of recurrent disease [3]: reduced the risk of recurrent disease; grade 3, 4, or 5 cardiac events [4]: 2.1%; patients with hypercholesterolemia reported at least once during treatment [4]: 43.6%"
CC(C)c1nc(N(C)S(C)(=O)=O)nc(-c2ccc(F)cc2)c1/C=C/[C@@H](O)C[C@@H](O)CC(=O)O [rosuvastatin],more potent than atorvastatin,,,,,,,,
CC/C(=C(\c1ccccc1)c1ccc(OCCN(C)C)cc1)c1ccccc1 [tamoxifen],,59,651,375,498,7.2,,86.8,10-year risk of mortality from endometrial cancer [5]: 2 per 1000; reduction of annual rate of mortality (ER+ breast cancer; [7]): 34%; reduction of annual rate of recurrence (ER+ breast cancer; [7]): 41%; absolute reduction in mortality (ER+ breast cancer; [8]): 9.2%; absolute reduction in recurrence (ER+ breast cancer; [8]): 11.8%
